For five compounds, IC50 results are on record in patent US20090306062A1, “2,5-Disubstituted Piperidines” (priority 2006, published 2009).

The IC50 is the concentration that gives 50% inhibition.

The assay deals with T1, renin (Homo sapiens, UniProt P00797).
T1 construct: This test measures the formation of angiotensin I in human plasma; from tissue; host or cells: human plasma
T1 sequence (P00797 67-406): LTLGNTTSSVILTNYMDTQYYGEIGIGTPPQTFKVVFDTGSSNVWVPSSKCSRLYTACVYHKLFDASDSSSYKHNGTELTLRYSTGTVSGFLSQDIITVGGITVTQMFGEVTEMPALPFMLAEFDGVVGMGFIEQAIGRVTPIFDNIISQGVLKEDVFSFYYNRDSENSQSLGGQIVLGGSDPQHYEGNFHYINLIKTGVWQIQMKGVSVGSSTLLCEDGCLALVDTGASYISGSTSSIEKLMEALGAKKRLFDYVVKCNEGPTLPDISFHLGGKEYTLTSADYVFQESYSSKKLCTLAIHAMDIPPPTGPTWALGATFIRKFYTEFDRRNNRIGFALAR
The assay can be described thus: in vitro test according to Nussberger et al.: formation of angiotensin I in human plasma, radioimmunoassay. In kind it is biochemical. The settings on record: range stated for the listed examples together, read-out: IC50, inhibition of the formation of angiotensin I. How it is done: One experimental method of detecting the action of renin inhibitors is by means of in vitro tests, in which the reduction of the formation of angiotensin I in different systems (human plasma, purified human renin together with synthetic or natural renin substrate) is measured. One in vitro test which is used is the one according to Nussberger et al. (1987) J. Cardiovascular Pharmacol., Vol. 9, p. 39-44 which follows. This test measures the formation of angiotensin I in human plasma. The amount of angiotensin I formed is determined in a subsequent radioimmunoassay. Which action inhibitors have on the formation of angiotensin I is tested in this system by the addition of different concentrations of these substances. The IC50 refers to that concentration of the particular inhibitor which reduces the formation of angiotensin I by 50%.
Regarding `COCCCN1CCOc2ccc(CO[C@@H]3CC[C@@H](CC(C)(C)C(=O)NCC4CC4)NC3)cc21` [Example 25, N-Cyclopropylmethyl-3-{(2S,5R)-5-[4-(3-methoxypropyl)-3,4-dihydro-2H-benzo[1,4]oxazin-6-ylmethoxy]piperidin-2-yl}-2,2-dimethylpropionamide], the IC50 was 74 to 2800 nM.
With `COCCCN1CCOc2ccc(CO[C@@H]3CC[C@@H](CC(C)(C)C(=O)NCC(C)(C)C(N)=O)NC3)cc21` [Example 26, N-(2-Carbamoyl-2-methylpropyl)-3-{(2S,5R)-5-[4-(3-methoxypropyl)-3,4-dihydro-2H-benzo[1,4]oxazin-6-ylmethoxy]piperidin-2-yl}-2,2-dimethylpropionamide] the figure was 74 to 2800 nM.
With `COCCCOc1cc(CO[C@@H]2CC[C@@H](CC(C)(C)C(=O)NCC3CCOCC3)NC2)ccc1F` [Example 42, 3-{(2S,5R)-5-[4-Fluoro-3-(3-methoxypropoxy)benzyloxy]piperidin-2-yl}-2,2-dimethyl-N-(tetrahydropyran-4-ylmethyl)propionamide] the figure was 74 to 2800 nM; with `COCCCN1C(=O)[C@](C)(c2ccccc2)Oc2ccc(CO[C@@H]3CC[C@@H](CC(C)(C)C(=O)NCC4CCOCC4)NC3)cc21` [Example 52, (S)-3-{(2S,5R)-5-[(S)-4-(3-Methoxypropyl)-2-methyl-3-oxo-2-phenyl-3,4-dihydro-2H-benzo[1,4]oxazin-6-ylmethoxy]piperidin-2-yl}-2,2-dimethyl-N-(tetrahydropyran-4-ylmethyl)propionamide], 74 to 2800 nM; with `COCCCN1CCOc2ccc(CO[C@@H]3CC[C@@H](C[C@@H](NC(=O)CC4CCOCC4)C(C)C)NC3)cc21` [Example 89, N—((R(or S))-1-{(2S,5R)-5-[4-(3-Methoxypropyl)-3,4-dihydro-2H-benzo[1,4]oxazin-6-ylmethoxy]piperidin-2-ylmethyl}-2-methylpropyl)-2-(tetrahydropyran-4-yl)acetamide], 74 to 2800 nM.
